Like-named read-outs stand apart in the source and are kept apart here.
Assays:
Assay type in all cases: cell-based, murine
BV2 microglial cells [1] = test: Poly I:C-induced IL-6 release by BV2 microglia; conditions: 10 µM
Experimental: (§1) The BV2 cells are cultured at 37° C. in a humidified atmosphere with 5% CO2 in high D-glucose (4.5 g/L) Dulbecco’s modified Eagle’s medium (Sigma, Rehovot, Israel) supplemented with 5% heat-inactivated fetal bovine serum, streptomycin (100 µg/ml), and penicillin (100 units/ml) and sodium pyruvate (1 mM; all from Biological Industries Ltd., Kibbutz Beit Haemek, Israel). 24 hours before experiments with LPS stimulation, the BV2 cells are split into 24 well plates, 2×10^5 cells per well, covered with 1 ml of growth medium and allowed to attach overnight. 24 hr before experiments with α-synuclein, the BV2 cells are split into 96-well plates, 50,000 (5×10^4) cells per well, covered with 200 µl of growth medium and allowed to attach overnight. […]

BV2 microglial cells [2] = test: Poly I:C-induced TNFα release by BV2 microglia; conditions: 5 and 10 µM
Experimental: as §1

BV2 microglial cells [3] = test: LPS-induced IL-6 release by BV2 microglia cell cultures (ELISA); conditions: for IC50: Mus musculus
Experimental: The BV2 murine microglial cell line is used in these studies.
The BV2 cells are cultured at 37° C. in a humidified atmosphere with 5% CO2 in high D-glucose (4.5 g/L) Dulbecco’s modified Eagle’s medium (Sigma, Rehovot, Israel) supplemented with 5% heat-inactivated fetal bovine serum, streptomycin (100 µg/ml), and penicillin (100 units/ml) and sodium pyruvate (1 mM; all from Biological Industries Ltd., Kibbutz Beit Haemek, Israel). 24 hours before experiments with LPS stimulation, the BV2 cells are split into 24 well plates, 2×10^5 cells per well, covered with 1 ml of growth medium and allowed to attach overnight. 24 hr before experiments with α-synuclein, the BV2 cells are split into 96-well plates, 50,000 (5×10^4) cells per well, covered with 200 µl of growth medium and allowed to attach overnight. Cultures of BV2 microglia cells are first treated by an individual cannabinoid, or terpene or flavonoid selected from: Cannabidiol (CBD), Δ-9-tetrahydrocannabinol (THC), Δ-8-tetrahydrocannabinol (THC), cannabigerol (CBG), cannabichromene (CBC), cannabigerolic acid (CBGA), Cannabidiolic acid (CBDA), THC acid (THCA), cannabichromenic Acid (CBCA), Cannabidivarin (CBDV), tetrahydrocannabivarin (THCV), Cannabichromevarin (CBCV), Cannabichromerocin ([…]), Cannabivarin (CBV), Cannabicitran (CBT), Cannabinol (CBN), Cannabicyclol (CBL), Cannabigerorcin (CBGO), Cannabinodiol (CBND), β-caryophyllene, β-elemene, β-myrcene, linalool, α-pinene, β-pinene, eucalyptol, alpha-terpineol, valencene, geraniol (lemonol), bisabolol, nerolidol, ocimene, terpinolene, humulene, α-terpinene, camphene, fenchol, α-phellandrene, Δ3-carene, γ-cardinene, sabinene, limonene, β-amyrin, cycloartenol, cannflavin A, cannflavin B, kaempferol, quercetin, luteolin, apigenin, canniprene, orientin, β-sitosterol, vitexin, isovitexin, and chrysin. Additional cultures of BV2 microglia cells are treated by an individual cannabinoid, with at least one additional cannabinoid, and/or terpene, and/or flavonoid, and/or celecoxib. Additional cultures are exposed to the vehicle of these compounds (cremophor, ethanol and PBS, 1:1:18 (v/v/v)) (FIG. 2A). In some studies, cultures of BV2 microglia cells are treated by a specific whole plant cannabis extract, with or without supplementation with cannabinoid(s), and/or terpene(s) and/or flavonoid(s), and/or celecoxib (FIG. 2B).
For each individual cannabinoid mentioned above, 3-4 concentrations are used, ranging from 0.1 to 10 µM. For ultra-low dose Δ9-THC the concentration used is 0.01 µM. For each individual terpene or flavonoid mentioned above, 3-4 concentrations are used, ranging from 1 to 50 µM. For celecoxib, 3-4 concentrations are used, ranging from 0.1 to 10 µM. Two hours following the treatment, the cultures are exposed to one of the following microglia stimulators: LPS (Sigma L2630; Escherichia coli serotype O111:B4) is dissolved in D-PBS (Sigma, D8537) to a pre-stock concentration of 1 mg/ml, aliquoted and stored at -80° C. Stock solution of LPS at 10 ug/ml is prepared using sterile D-PBS, followed by filtering via 0.22 µm filter membrane, aliquoting and storing in -20° C. LPS is applied into the cell medium at a final concentration of 100 ng/ml. Poly I:C (Sigma, P1530) was first dissolved in sterile, molecular grade water to the concentration of 10 mg/ml (following the manufacturer’s instructions). This stock solution was further diluted to the concentration of 1 mg/ml in sterile PBS, and the aliquots stored in -20 °C.

With `C=C(C)[C@@H]1CCC(C)=C[C@H]1c1c(O)cc(CCCCC)cc1O` [CBD, cannabidiol] the “Poly I:C-induced IL-6” value (BV2 microglial cells [1]) was “markedly decreased”, the “Poly I:C-induced TNFα release” value (BV2 microglial cells [2]) was “significantly decreased” and the “release of IL-6” value (BV2 microglial cells [3]; Example 3, 10 µM) was “significantly inhibited”. For the same compound, the “IL-6 secretion vs Veh plus LPS” value (BV2 microglial cells [3]; Example 6, CBD or CBDV given by themselves) was “no significant effect”, the “LPS-induced IL-6 release” value (BV2 microglial cells [3]; Example 25, CBD, CannA, CannB 5 and 10 µM, CannC 10 µM) was “significantly decreased” and the IC50 (BV2 microglial cells [3]; BV-2, Example 6 (FIG. 7D), by itself, read-out: IC50 for inhibiting LPS-induced IL-6 release) was 4.3 µM. The IC50 (BV2 microglial cells [3]; BV-2, Example 6, addition of 1 µM CBDV, read-out: CBD IC50, LPS-induced IL-6 release) was 3.1 µM, the IC50 (BV2 microglial cells [3]; BV-2, Example 6, addition of 2.5 µM CBDV, read-out: CBD IC50, LPS-induced IL-6 release) was 2 µM and the IC50 (BV2 microglial cells [3]; BV-2, Example 6, addition of 5 µM CBDV, read-out: CBD IC50, LPS-induced IL-6 release) was 1.7 µM. The IC50 (BV2 microglial cells [3]; BV-2, Example 25 (FIG. 25E), extracts calculated on dominant cannabinoid, read-out: IC50 for IL-6 inhibition) was 5.9 µM.
